Results taken from the NIST ThermoML archive (doi:10.1016/j.jct.2011.05.022).
Numbers after ± are expanded uncertainties.

Experiment: molar heat capacity at constant pressure
Settings: 101.33 kPa, Liquid, Small sample (50 mg) DSC

molar heat capacity at constant pressure (298.2 K) | molar heat capacity at constant pressure (323.2 K) | Compound
495 ± 50 J/K/mol | 524 ± 53 J/K/mol | CCCC[n+]1cccc(C)c1.N#C[B-](C#N)(C#N)C#N [1-butyl-3-methylpyridinium tetracyanoborate]
524 ± 53 J/K/mol | 554 ± 56 J/K/mol | CCCC[N+]1(C)CCCC1.N#C[B-](C#N)(C#N)C#N [1-butyl-1-methylpyrrolidinium tetracyanoborate]
